From patent publication US4456594A, “N-Carboxyalkylproline-containing tripeptides” (SmithKline Beckman Corporation, priority 1982, dated 1984)
Counter-ions that a name gives are not always drawn.

Columns and labels:
[1] = test system: anesthetized dogs; test: renal vasodilator activity test in anesthetized dogs (infusion); type: in vivo, dog; conditions: for renal vasodilator activity: primary test period of the renal anesthetized dog screening protocol
Source text: Representative specific results are included in the examples.

[2] = test system: toad bladder; test: toad bladder anti-ADH assay
[3] = bradycardic effect (heart rate), test not stated; conditions: in vivo
[4] = test system: spontaneously hypertensive rats; test: spontaneously hypertensive rat (SHR) diuretic naturetic assay; type: in vivo; conditions: 25 and 50 mg/kg i.p.
Description: In this test, male, Okamato-Aoki strain, spontaneously hypertensive rats, aged 16-19 weeks, are fasted, then, the following afternoon, the first dose of test compound is administered, along with a 25 ml/kg p.o. load of normal saline. The animals are, then, placed in metabolism cages and urine collected for three hours for analysis. Indirect systolic blood pressure and heart rate are measured by a tail-cuff. An identical second dose of test compound is administered. After two hours, blood pressure and heart rate are again tested. The test compound is usually administered p.o. or i.p. in saline with 0.02% ascorbic acid.

[5] = test system: dopamine-sensitive adenylate cyclase system; test: dopamine-sensitive adenylate cyclase system in vitro; type: biochemical
[6] = test system: angiotensin coverting enzyme; test: angiotensin converting enzyme inhibiting activity; type: in vivo; conditions: at 10 times its renally effective dose
[7] = two anesthetized dogs, 3, 30 and 300 μg/kg/min

O=C(O)CN1CCC[C@H]1C(=O)N[C@@H](Cc1ccccc1)C(=O)N1CCC[C@H]1C(=O)O [Example 2 sulfate, N-carboxymethyl-L-prolyl-L-phenylalanyl-L-proline]
renal blood flow (qualitative) ([1]; 30 and 300 μg/kg/min): increased renal blood flow

O=C(O)CN1CCC[C@H]1C(=O)NCCC(=O)N1CCC[C@H]1C(=O)O.O=S(=O)(O)O [Example 3, N-carboxymethyl-L-prolyl-β-alanyl-L-proline sulfate]
renal blood flow (qualitative) [1, 7]: increased renal blood flow | renal vascular resistance (qualitative) [1, 7]: decreased renal vascular resistance | anti-ADH activity [2]: nor was it active | bradycardic effect [3]: weak bradycardic effect | Na+, K+ or urine excretion (qualitative) [4]: significant increase | stimulation or antagonism of dopamine-sensitive adenylate cyclase [5]: did not stimulate or antagonize | angiotensin converting enzyme inhibiting activity [6]: did not have angiotensin coverting enzyme inhibiting activity

CC(C(=O)O)N1CCC[C@H]1C(=O)NCCC(=O)N1CCC[C@H]1C(=O)O (stereo partly drawn) [N-(1-carboxyethyl)-L-prolyl-β-alanyl-L-proline]
renal vasodilator activity [1]: inactive

NCCCC[C@H](NC(=O)[C@@H]1CCCN1CC(=O)O)C(=O)N1CCC[C@H]1C(=O)O [N-carboxymethyl-L-prolyl-L-lysyl-L-proline]
renal vasodilator activity [1]: inactive

O=C(O)CN1CCC[C@H]1C(=O)NCC(=O)N1CCC[C@H]1C(=O)O [N-carboxymethyl-prolyl-glycyl-L-proline]
renal vasodilator activity [1]: inactive

NCCc1ccc(O)c(O)c1 [dopamine]
RVR-ED15 ([1]; secondary test in three dogs, i.v.): 3.5 µg/kg
